The source of these data is the SangsterLogP compilation.

Data set [1] is described as follows: method code SF, from DOI: 10.1016/j.ejps.2005.05.001, PMID: 15955679.

One may read the logP as the decadic logarithm of the partition coefficient of the neutral form, usually between octanol and water. A low value points to a more hydrophilic compound. Usually logD stands for lipophilicity at a set pH, counting ionised and neutral species. A high value points to a more lipophilic compound.

Regarding `Cc1ccc(C#N)c(=O)[nH]1`, the logP is -0.13.

`N#Cc1ccc(-c2ccncc2)[nH]c1=O` showed a logP of 0.02.

As for `COC(=O)c1cc(C(C)=O)c(C)[nH]c1=O`, the logP was -0.09.

In data set [1], `O=C(c1ccccc1)c1cc2c([nH]c1=O)CCCC2` showed a logP of 2.1.

`CC(=O)c1ccc(=O)[nH]c1C`: in data set [1] (pH 7.4), the pH-dependent lipophilicity (logD) is -0.3.

`CC(=O)c1cc(C(=O)O)c(=O)[nH]c1C`: the logP was -0.04.

`N#Cc1ccc(-c2cccnc2)[nH]c1=O` returned a logP of 0.05.

`Cc1[nH]c(=O)c(C#N)cc1C(=O)O` gave a logP of 0.15.

On to `N#Cc1ccc(-c2ccccn2)[nH]c1=O`, for which the logP amounted to 0.3. The logP values of the last two molecules are within 0.2 log units of each other.

On to `O=c1[nH]c2c(cc1S(=O)(=O)c1ccccc1)CCCC2`, for which the logP in data set [1] was 1.76.

The molecule `CCOC(=O)c1cc(C#N)c(=O)[nH]c1C` displayed a logP of 0.65.

On to `Cc1[nH]c(=O)c(C#N)cc1C(=O)OCC(C)C`, for which the logP amounted to 1.78.

The molecule `CC(=O)c1ccc(-c2ccccc2)[nH]c1=O` returned a logP in data set [1] of 1.74.
